Measured values as given in US9062124B2, “GIP-based mixed agonists for treatment of metabolic disorders and obesity” (priority 2008, dated 2015).
Where a SMILES comes first, the peptide text is derived from it. Bridges are numbered along the chain shown (N, C = ends). [ ]: non-standard residue; d: D form. Aib = CC(C)(N)C(=O)O

Columns and labels:
Assay type in all cases: cell-based
GLP-1 receptor = molecular target: T1, GLP-1 receptor (Homo sapiens, UniProt P43220); assay: cAMP synthesis functional assay (firefly luciferase reporter in HEK293 cells), GLP-1 receptor; conditions: Table 1; for GLP-1 Receptor relative activity: relative to the native hormone of the indicated receptor; for EC50: GLP-1 Receptor EC50, nM
T1 construct: expressed in transfected cells; host or cells: HEK293
T1 sequence (P43220 24-463, species assumed): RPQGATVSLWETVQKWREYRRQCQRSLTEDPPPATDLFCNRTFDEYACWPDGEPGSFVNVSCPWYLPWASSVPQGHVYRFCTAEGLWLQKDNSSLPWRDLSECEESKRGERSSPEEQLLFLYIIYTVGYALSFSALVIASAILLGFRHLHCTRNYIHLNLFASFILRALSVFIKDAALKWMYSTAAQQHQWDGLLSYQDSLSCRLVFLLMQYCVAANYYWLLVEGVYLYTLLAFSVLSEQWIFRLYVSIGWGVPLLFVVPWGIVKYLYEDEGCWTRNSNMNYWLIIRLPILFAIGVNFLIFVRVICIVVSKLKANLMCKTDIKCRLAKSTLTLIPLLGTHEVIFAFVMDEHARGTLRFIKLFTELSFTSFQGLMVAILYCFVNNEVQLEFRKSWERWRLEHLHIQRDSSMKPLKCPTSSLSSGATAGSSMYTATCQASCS

glucagon receptor = molecular target: T2, glucagon receptor (Homo sapiens, UniProt P47871); assay: cAMP synthesis functional assay (firefly luciferase reporter in HEK293 cells), glucagon receptor; conditions: Table 1; for Glucagon Receptor relative activity: relative to the native hormone of the indicated receptor; for EC50: Glucagon Receptor EC50, nM
T2 construct: expressed in transfected cells; host or cells: HEK293
T2 sequence (P47871 26-477): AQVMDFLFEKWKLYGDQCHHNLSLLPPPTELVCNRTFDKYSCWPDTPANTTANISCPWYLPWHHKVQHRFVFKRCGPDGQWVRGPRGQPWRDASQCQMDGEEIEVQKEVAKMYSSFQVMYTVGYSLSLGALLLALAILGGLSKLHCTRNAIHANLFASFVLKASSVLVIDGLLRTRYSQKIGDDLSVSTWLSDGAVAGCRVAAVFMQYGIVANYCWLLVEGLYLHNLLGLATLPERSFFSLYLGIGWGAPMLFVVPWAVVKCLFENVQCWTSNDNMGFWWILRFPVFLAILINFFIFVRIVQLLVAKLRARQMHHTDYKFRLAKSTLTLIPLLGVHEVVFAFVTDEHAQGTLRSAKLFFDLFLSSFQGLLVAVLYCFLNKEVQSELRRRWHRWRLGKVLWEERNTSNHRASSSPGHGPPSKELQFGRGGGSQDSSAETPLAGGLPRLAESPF

GIP receptor = molecular target: T3, GIP receptor (Homo sapiens, UniProt P48546); assay: cAMP synthesis functional assay (firefly luciferase reporter in HEK293 cells), GIP receptor; conditions: Table 1; for GIP Receptor relative activity: relative to the native hormone of the indicated receptor
T3 construct: expressed in transfected cells; host or cells: HEK293
T3 sequence (P48546 22-466): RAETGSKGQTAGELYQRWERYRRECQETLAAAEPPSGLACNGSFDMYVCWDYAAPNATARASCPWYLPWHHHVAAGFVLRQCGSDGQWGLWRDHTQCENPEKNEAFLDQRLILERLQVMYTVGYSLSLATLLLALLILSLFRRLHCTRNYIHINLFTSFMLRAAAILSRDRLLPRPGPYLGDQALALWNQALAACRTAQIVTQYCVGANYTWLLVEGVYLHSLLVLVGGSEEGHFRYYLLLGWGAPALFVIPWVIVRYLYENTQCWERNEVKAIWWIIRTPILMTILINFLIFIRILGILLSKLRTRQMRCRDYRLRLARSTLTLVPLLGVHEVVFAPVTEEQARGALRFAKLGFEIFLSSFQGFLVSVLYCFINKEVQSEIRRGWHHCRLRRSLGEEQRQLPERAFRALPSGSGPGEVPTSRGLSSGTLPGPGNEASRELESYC

| SMILES | GLP-1 Receptor relative activity (GLP-1 receptor) [%] | Glucagon Receptor relative activity (glucagon receptor) [%] | GIP Receptor relative activity (GIP receptor) [%] | EC50 (GLP-1 receptor) [nM] | EC50 (glucagon receptor) [nM] | EC50 (GIP receptor; GIP Receptor EC50, nM) [nM] |
| --- | --- | --- | --- | --- | --- | --- |
| CC[C@H](C)[C@H](NC(=O)[C@H](CO)NC(=O)[C@H](Cc1ccc(O)cc1)NC(=O)[C@H](CC(=O)O)NC(=O)[C@H](CO)NC(=O)[C@@H](NC(=O)[C@H](Cc1ccccc1)NC(=O)[C@@H](NC(=O)CNC(=O)[C@H](CCC(N)=O)NC(=O)[C@H](CO)NC(=O)[C@@H](N)Cc1ccc(O)cc1)[C@@H](C)O)[C@@H](C)O)C(=O)N[C@@H](Cc1ccc(O)cc1)C(=O)N[C@@H](CC(C)C)C(=O)N[C@@H](CC(=O)O)C(=O)N[C@@H](CCC(=O)O)C(=O)N[C@@H](CCC(N)=O)C(=O)N[C@@H](C)C(=O)N[C@@H](C)C(=O)N[C@@H](CCCCN)C(=O)N[C@@H](CCC(=O)O)C(=O)N[C@@H](Cc1ccccc1)C(=O)N[C@H](C(=O)N[C@H]1CCC(=O)NCCCC[C@@H](C(=O)NCC(=O)NCC(=O)N2CCC[C@H]2C(=O)N[C@@H](CO)C(=O)N[C@@H](CO)C(=O)NCC(=O)N[C@@H](C)C(=O)N2CCC[C@H]2C(=O)N2CCC[C@H]2C(=O)N2CCC[C@H]2C(=O)N[C@@H](CO)C(N)=O)NC(=O)[C@H](CC(C)C)NC(=O)[C@H](CC(C)C)NC(=O)[C@H](Cc2c[nH]c3ccccc23)NC1=O)C(C)C [mt-157] (H-YSQGTFTSDYSIYLDEQAAKEFVEWLLKGGPSSGAPPPS-NH2; lactam 24-28; N-terminus assumed) | 37.04 | 6.92 | 4.00 | – | – | – |
| CC[C@H](C)[C@H](NC(=O)[C@H](CO)NC(=O)[C@H](Cc1ccc(O)cc1)NC(=O)[C@H](CC(=O)O)NC(=O)[C@H](CO)NC(=O)[C@@H](NC(=O)[C@H](Cc1ccccc1)NC(=O)[C@@H](NC(=O)CNC(=O)[C@H](CCC(N)=O)NC(=O)[C@H](CO)NC(=O)[C@@H](N)Cc1ccc(O)cc1)[C@@H](C)O)[C@@H](C)O)C(=O)N[C@@H](Cc1ccc(O)cc1)C(=O)N[C@@H](CC(C)C)C(=O)N[C@@H](CC(=O)O)C(=O)N[C@H]1CCC(=O)NCCCC[C@@H](C(=O)N[C@@H](CCC(=O)O)C(=O)N[C@@H](Cc2ccccc2)C(=O)N[C@H](C(=O)N[C@@H](CC(N)=O)C(=O)N[C@@H](Cc2c[nH]c3ccccc23)C(=O)N[C@@H](CC(C)C)C(=O)N[C@@H](CC(C)C)C(=O)N[C@@H](C)C(=O)NCC(N)=O)C(C)C)NC(=O)[C@H](C)NC(=O)[C@H](C)NC(=O)[C@H](CCC(N)=O)NC1=O [mt-163] (H-YSQGTFTSDYSIYLDEQAAKEFVNWLLAG-NH2; lactam 16-20; N-terminus assumed) | 30.00 | 251.85 | 4.73 | 0.04 | – | – |
| CC[C@H](C)[C@H](NC(=O)[C@H](CO)NC(=O)[C@H](Cc1ccc(O)cc1)NC(=O)[C@H](CC(=O)O)NC(=O)[C@H](CO)NC(=O)[C@@H](NC(=O)[C@H](Cc1ccccc1)NC(=O)[C@@H](NC(=O)CNC(=O)[C@H](CCC(N)=O)NC(=O)[C@H](CO)NC(=O)[C@@H](N)Cc1ccc(O)cc1)[C@@H](C)O)[C@@H](C)O)C(=O)N[C@@H](Cc1ccc(O)cc1)C(=O)N[C@@H](CC(C)C)C(=O)N[C@@H](CC(=O)O)C(=O)N[C@@H](CCC(=O)O)C(=O)N[C@H]1CCC(=O)NCCCC[C@@H](C(=O)N[C@@H](CCC(=O)O)C(=O)N[C@@H](Cc2ccccc2)C(=O)N[C@H](C(=O)N[C@@H](CC(N)=O)C(=O)N[C@@H](Cc2c[nH]c3ccccc23)C(=O)N[C@@H](CC(C)C)C(=O)N[C@@H](CC(C)C)C(=O)N[C@@H](C)C(=O)NCC(=O)NCC(=O)N2CCC[C@H]2C(=O)N[C@@H](CO)C(=O)N[C@@H](CO)C(=O)NCC(=O)N[C@@H](C)C(=O)N2CCC[C@H]2C(=O)N2CCC[C@H]2C(=O)N2CCC[C@H]2C(=O)N[C@@H](CO)C(N)=O)C(C)C)NC(=O)[C@H](C)NC(=O)[C@H](C)NC1=O [mt-167] (H-YSQGTFTSDYSIYLDEEAAKEFVNWLLAGGPSSGAPPPS-NH2; lactam 17-20; N-terminus assumed) | 7.94 | 34.53 | 5.01 | – | – | – |
| CC[C@H](C)[C@H](NC(=O)[C@H](CO)NC(=O)[C@H](Cc1ccc(O)cc1)NC(=O)[C@H](CC(=O)O)NC(=O)[C@H](CO)NC(=O)[C@@H](NC(=O)[C@H](Cc1ccccc1)NC(=O)[C@@H](NC(=O)CNC(=O)[C@H](CCC(N)=O)NC(=O)[C@H](CO)NC(=O)[C@@H](N)Cc1ccc(O)cc1)[C@@H](C)O)[C@@H](C)O)C(=O)N[C@@H](Cc1ccc(O)cc1)C(=O)N[C@@H](CC(C)C)C(=O)N[C@@H](CC(=O)O)C(=O)N[C@@H](CCC(=O)O)C(=O)N[C@@H](CCC(N)=O)C(=O)N[C@H]1CCCCNC(=O)CC[C@@H](C(=O)N[C@@H](Cc2ccccc2)C(=O)N[C@H](C(=O)N[C@@H](CC(N)=O)C(=O)N[C@@H](Cc2c[nH]c3ccccc23)C(=O)N[C@@H](CC(C)C)C(=O)N[C@@H](CC(C)C)C(=O)N[C@@H](C)C(=O)NCC(=O)NCC(=O)N2CCC[C@H]2C(=O)N[C@@H](CO)C(=O)N[C@@H](CO)C(=O)NCC(=O)N[C@@H](C)C(=O)N2CCC[C@H]2C(=O)N2CCC[C@H]2C(=O)N2CCC[C@H]2C(=O)N[C@@H](CO)C(N)=O)C(C)C)NC(=O)[C@H](CCCCN)NC(=O)[C@H](C)NC1=O [mt-168] (H-YSQGTFTSDYSIYLDEQKAKEFVNWLLAGGPSSGAPPPS-NH2; lactam 18-21; N-terminus assumed) | 1.45 | 4.79 | 0.32 | – | 2.61 | – |
| CC[C@H](C)[C@H](NC(=O)[C@H](CO)NC(=O)[C@H](Cc1ccc(O)cc1)NC(=O)[C@H](CC(=O)O)NC(=O)[C@H](CO)NC(=O)[C@@H](NC(=O)[C@H](Cc1ccccc1)NC(=O)[C@@H](NC(=O)CNC(=O)[C@H](CCC(N)=O)NC(=O)C(C)(C)N)[C@@H](C)O)[C@@H](C)O)C(=O)N[C@@H](Cc1ccc(O)cc1)C(=O)N[C@@H](CC(C)C)C(=O)N[C@@H](CC(=O)O)C(=O)N[C@H]1CCC(=O)NCCCC[C@@H](C(=O)N[C@@H](CCC(=O)O)C(=O)N[C@@H](Cc2ccccc2)C(=O)N[C@H](C(=O)N[C@@H](CC(N)=O)C(=O)N[C@@H](Cc2c[nH]c3ccccc23)C(=O)N[C@@H](CC(C)C)C(=O)N[C@@H](CC(C)C)C(=O)N[C@@H](C)C(=O)NCC(N)=O)C(C)C)NC(=O)[C@H](C)NC(=O)[C@H](C)NC(=O)[C@H](CCC(N)=O)NC1=O [mt-198] (H-[Aib]QGTFTSDYSIYLDEQAAKEFVNWLLAG-NH2; lactam 15-19; N-terminus assumed) | 0.17 | 0.53 | 0.02 | – | – | – |
| CC[C@H](C)[C@H](NC(=O)[C@H](CO)NC(=O)[C@H](Cc1ccc(O)cc1)NC(=O)[C@H](CC(=O)O)NC(=O)[C@H](CO)NC(=O)[C@@H](NC(=O)[C@H](Cc1ccccc1)NC(=O)[C@@H](NC(=O)CNC(=O)[C@H](CCC(N)=O)NC(=O)C(C)(C)NC(=O)[C@@H](N)Cc1ccc(O)cc1)[C@@H](C)O)C(C)C)C(=O)N[C@@H](Cc1ccc(O)cc1)C(=O)N[C@@H](CC(C)C)C(=O)N[C@@H](CC(=O)O)C(=O)N[C@H]1CCC(=O)NCCCC[C@@H](C(=O)N[C@@H](CCC(=O)O)C(=O)N[C@@H](Cc2ccccc2)C(=O)N[C@H](C(=O)N[C@@H](CC(N)=O)C(=O)N[C@@H](Cc2c[nH]c3ccccc23)C(=O)N[C@@H](CC(C)C)C(=O)N[C@@H](CC(C)C)C(=O)N[C@@H](C)C(=O)NCC(=O)NCC(=O)N2CCC[C@H]2C(=O)N[C@@H](CO)C(=O)N[C@@H](CO)C(=O)NCC(=O)N[C@@H](C)C(=O)N2CCC[C@H]2C(=O)N2CCC[C@H]2C(=O)N2CCC[C@H]2C(=O)N[C@@H](CO)C(=O)N[C@@H](CS)C(N)=O)C(C)C)NC(=O)[C@H](C)NC(=O)[C@H](C)NC(=O)[C@H](CCC(N)=O)NC1=O [mt-199] (H-Y[Aib]QGTFVSDYSIYLDEQAAKEFVNWLLAGGPSSGAPPPSC-NH2; lactam 16-20; N-terminus assumed) | 1.04 | 31.31 | 5.51 | 2.8 | 0.214 | 0.526 |
| CC(C)C[C@H](NC(=O)[C@H](CC(C)C)NC(=O)[C@H](Cc1c[nH]c2ccccc12)NC(=O)[C@H](CC(N)=O)NC(=O)[C@@H](NC(=O)[C@H](Cc1ccccc1)NC(=O)[C@H](CCC(=O)O)NC(=O)[C@@H]1CCCCNC(=O)CC[C@H](NC(=O)[C@H](CC(=O)O)NC(=O)[C@H](CC(C)C)NC(=O)[C@H](Cc2ccc(O)cc2)NC(=O)[C@@H]2CCCCNC(=O)CC[C@H](NC(=O)[C@H](CO)NC(=O)[C@@H](NC(=O)[C@H](Cc3ccccc3)NC(=O)[C@@H](NC(=O)CNC(=O)[C@H](CCC(N)=O)NC(=O)C(C)(C)NC(=O)[C@@H](N)Cc3ccc(O)cc3)[C@@H](C)O)[C@@H](C)O)C(=O)N[C@@H](Cc3ccc(O)cc3)C(=O)N[C@@H](CO)C(=O)N2)C(=O)N[C@@H](CCC(N)=O)C(=O)N[C@@H](C)C(=O)N[C@@H](C)C(=O)N1)C(C)C)C(=O)N[C@@H](C)C(=O)NCC(=O)NCC(=O)N1CCC[C@H]1C(=O)N[C@@H](CO)C(=O)N[C@@H](CO)C(=O)NCC(=O)N[C@@H](C)C(=O)N1CCC[C@H]1C(=O)N1CCC[C@H]1C(=O)N1CCC[C@H]1C(=O)N[C@@H](CO)C(=O)N[C@@H](CS)C(N)=O [mt-209] (H-Y[Aib]QGTFTSEYSKYLDEQAAKEFVNWLLAGGPSSGAPPPSC-NH2; lactam 9-12, 16-20; N-terminus assumed) | 1.33 | 0.90 | 1.42 | – | – | – |
